Article PMC9386499, “Integrated regulation of PKA by fast and slow neurotransmission in the nucleus accumbens controls plasticity and stress responses” (The Journal of Biological Chemistry, 2022)
No end group written: not given here.

How the values were obtained:
Cdk5 = test: In vitro phosphorylation of RIIβ by Cdk5 (stoichiometry); type: biochemical; conditions: saturating conditions, 32P incorporation
Description: (§1) Rat recombinant RIIβ was derived as a C-terminal 6XHis fusion by Ni-NTA affinity purification using standard pET vector methods (Novagen). RIIβ was phosphorylated in vitro by Cdk5 or PKA using standard conditions ([55]). Cdk5/p25 was from Millipore, and PKA was from NEB. 32P incorporation was quantitated by PhosphorImager analysis. All kinetic analyses were conducted under empirically defined linear conditions. PKA activity was measured by phosphorylation of recombinant inhibitor-1 ([56]) or DARPP-32 ([14]). For phosphorylation site identification, preparatively phosphorylated RIIβ was subjected to nano-liquid chromatography tandem mass spectrometry as previously described ([57]). Digests were redissolved in 0.1% trifluoracetic acid and loaded onto a ZipTip with C18 resin (Millipore) for purification. Analysis was conducted using nanoelectrospray-QSTAR Pulsar I quadrupole time-of-flight tandem mass spectrometry (MDS Proteomics). Structural model of AKAP/RIIβ dimer interaction was based on published data of AKAP (PDB: 2HWN) ([24]) and RIIβ (PDB: 1CX4) ([58]).

PKA [1] = test: PKA inhibition curves for WT versus S114D RIIβ (in vitro); type: biochemical; conditions: means ± S.E.M., n = 3
Description: as §1

D1R neurons (NAc) = test: Whole-cell patch-clamp recordings of D1R-expressing neurons (EPSP, LTP, AMPA/NMDA ratio); type: cell-based, mouse; conditions: NBQX 10 μM after APV 20 μM
Text: For whole-cell recordings, Drd2-EGFP FVB mice were deeply anesthetized and transcardially perfused with ice-cold cutting artificial cerebrospinal fluid containing (in mM): 87 NaCl, 2.5 KCl, 0.5 CaCl2, 7 MgCl2, 1.25 NaH2PO4, 25 NaHCO3, 25 glucose, and 75 sucrose, bubbled with 95% O2/5% CO2. Parasagittal slices were cut transversely at 300 μm using a vibrating blade microtome (VT1200S, Leica Microsystems). Slices were transferred to normal saline solution containing (in mM): 119 NaCl, 2.5 KCl, 2.5 CaCl2, 1.3 MgCl2, 1.3 NaH2PO4, 26 NaHCO3, and 20 glucose at 32 °C for 30 min and then allowed to recover for 1 h at room temperature before recordings. Individual slices were transferred to a submerged chamber mounted on a fixed-stage upright microscope (Zeiss Axioskop FS) and continuously perfused at 30 °C with normal saline solution containing (in μM): 0 MgCl2, 50 picrotoxin, and 10 glycine. GFP-negative D1 cells were visualized by infrared differential interference contrast microscopy with a water-immersion 63X objective (0.9 NA, Zeiss). Current clamp recordings were performed with unpolished pipettes containing (in mM): 140 K-gluconate, 5 KCl, 2 MgCl2, 10 Hepes, 4 Mg-ATP, 0.3 Na-GTP, 10 Na2-creatine phosphate, 0.2 Na-EGTA, 290 to 300 mOsm, pH 7.3 (final resistance, 3-4MΩ). LTP of EPSPs was induced by HFS in control and RIIβ siP-treated D1 cells (at −70 mV). […]

rats = test: Forced swim test (FST) after intra-accumbens infusion; type: in vivo, rat; conditions: ketamine 2 µg in 1 µl, subanesthetic, bilateral intra-accumbal
Description: Rats were anesthetized with isoflurane and placed in a stereotaxic frame (Kopf Instruments). Bilateral cannulas (3 mm center-to-center distance, cut 8 mm below pedestal, Plastics One) were placed in NAc core (anterior-posterior to bregma +1.5 mm, medial/lateral ±1.5 mm, depth −6.8 mm). Peptides were bilaterally infused 1 week later in awake and mobile animals. Injection volume was 1 μl of peptide (100 μM in PBS, 10% DMSO, per cerebral hemisphere). Animals were allowed to recover for 1 h prior to behavioral testing. Accuracy was confirmed by infusion of methylene blue dye or direct visualization of cannula tracts postbehavioral testing.
The Porsolt FST was conducted as described previously ([64]). Briefly, one-trial forced swim was used for acute stress. Nonsurgerized rats underwent an 8 min swim in an 8-gallon transparent water filled cylinder at 24 to 25 °C. Animals recovered in their home cages for 1 h prior to brain dissection. The NAc was then microdissected for immunoblotting. […] They were then placed in a locomotor chamber, and locomotor activity was monitored for 30 min in circular donut-shaped locomotor chambers in the dark with a computer-monitored infrared photobeam system (MED-PC, Med Associates). […] The last 6 min of the test were scored for latency to immobility and time immobile, with immobility defined as the time animals spent completely motionless.

[2] = test system: cortico-ventral striatal synapses (NAc); test: Cortico-ventral striatal field recordings (fEPSP, LTP, I/O, PPR); type: cell-based, rat; conditions: slices
Description: Adult rats were anaesthetized by isoflurane (Piramal Healthcare), and brains were placed in ice-cold sucrose saline solution (4 °C) containing (in mM): 87 NaCl, 75 Sucrose, 2.5 KCl, 1.25 NaH2PO4, 7 MgCl2, 0.5 CaCl2, 25 NaHCO3, and 10 glucose (pH 7.4; saturated with […]). Parasagittal vibratome slices (350 μ thick) containing prefrontal cortex and NAc core were transferred into saline solution containing 125 NaCl, 2.5 KCl, 1.25 NaH2PO4, 1.3 MgCl2, 2 CaCl2, 25 NaHCO3, and 25 glucose (pH 7.4; saturated with […]) and maintained for 20 min at 30 °C, then transferred to room temperature (22–25 °C) and allowed 1 h recovery. […]
Extracellular recordings: fEPSPs were obtained at 25 °C in the presence of the GABAA antagonist (SR95531, Gabazine, 2 μM) and were evoked by square current pulses (0.2 ms) at 0.033 Hz with a bipolar stimulation electrode (FHC) placed at the border of corpus callosum separated by ∼300 to 500 μ from the recording electrode. […] The paired pulse ratio (PPR) paradigm was applied using different inter-stimulus intervals and PPR changes were measured as PPR = second fEPSP amplitude/first fEPSP amplitude. After recording stable baseline for at least 10 min, LTP was induced by HFS (4 trains, 100 Hz, 1 s duration, separated by 20 s). fEPSP amplitude was monitored for at least 50 min after HFS to evaluate LTP. […]

phospho-Thr69 RIIβ = test: Slice pharmacology, immunoblot of phospho-Thr69 RIIβ; type: cell-based, rat
Description: (§2) Slice pharmacology was conducted as previously described ([62]). Briefly, striatum was microdissected from 350 μ coronal rat brain slices, equilibrated for 1 h, 30 °C in Kreb’s buffer with 10 μg/ml adenosine deaminase (Roche). […] Briefly, conditions included low Mg^2+ (0.5 mM) and a 30 min tissue recovery in drug-free buffer prior to harvest. Tissue was snap-frozen on dry ice. Immunoblotting was as previously described ([63]) and analyzed using Image J software (NIH). Data from immunoblots with phosphorylation-specific antibodies were normalized to total protein. Antibodies used included those for PKA regulatory subunits (BD Biosciences Cat# 610626, RRID: AB_397958; BD Biosciences Cat# 610609 RRID:AB_397943; BD Biosciences Cat# 612242 RRID:AB_399565), phospho-S114 RIIβ (BD Biosciences Cat# 612550 RRID:AB_399845), and NMDAR1 (BD Biosciences Cat# 556308 RRID:AB_396353), phospho-S845 GluA1 (PhosphoSolutions Cat# p1160-845 RRID:AB_2492128) and phospho-T34 DARPP-32 (PhosphoSolutions Cat# p1025-34 RRID:AB_2492068), and total GluA1 (Millipore Cat# 05-855R RRID:AB_1587070). Total DARPP-32 antibody was from H. Hemmings (Weill Cornell Medical College).

phospho-Ser114 RIIβ = test: Slice pharmacology, immunoblot of phospho-Ser114 RIIβ; type: cell-based, rat; conditions: striatal slices, NMDA 50 μM, 5 min; *p < 0.05, n = 4
Description: as §2

PKA [3] = test: PKA inhibition by dephospho- vs. phospho-T69 RIIβ; type: biochemical; conditions: in vitro, n=4
Description: as §1

[4] = target: T1, Cdk5-dependent phosphorylation of RIIβ (Homo sapiens, UniProt Q00535); test: Inhibition of Cdk5-dependent phosphorylation of RIIβ in vitro by siP; type: biochemical; conditions: means ± S.E.M.
T1 construct: purchased Millipore
T1 sequence (Q00535 whole entry): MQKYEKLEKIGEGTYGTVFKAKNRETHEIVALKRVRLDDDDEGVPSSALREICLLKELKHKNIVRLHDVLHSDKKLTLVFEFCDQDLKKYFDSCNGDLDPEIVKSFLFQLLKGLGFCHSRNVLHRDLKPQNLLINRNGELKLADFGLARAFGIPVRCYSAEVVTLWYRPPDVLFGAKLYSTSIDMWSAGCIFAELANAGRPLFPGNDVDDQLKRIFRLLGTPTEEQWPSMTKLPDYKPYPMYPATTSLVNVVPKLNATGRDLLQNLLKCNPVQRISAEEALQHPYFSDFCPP
T1 sequence (Q15078 99-307 partner limits assumed): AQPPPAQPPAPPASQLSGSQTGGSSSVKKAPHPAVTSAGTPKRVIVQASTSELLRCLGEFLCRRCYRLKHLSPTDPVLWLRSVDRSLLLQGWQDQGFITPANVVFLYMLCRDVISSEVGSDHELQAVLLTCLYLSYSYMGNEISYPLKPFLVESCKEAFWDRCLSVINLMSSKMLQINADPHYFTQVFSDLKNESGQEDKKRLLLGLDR
Description: as §1

Molecule: RIIβ: Rat recombinant RIIβ, C-terminal 6XHis fusion; PKA regulatory subunit
- maximal stoichiometry of phosphorylation by Cdk5 (Cdk5): 0.6 mol PO4/mol of substrate
- IC50 (PKA [1]): 0.0015 ± 0.0003 µM

Molecule: NS(=O)(=O)c1cccc2c1c([N+](=O)[O-])cc1nc(O)c(O)nc12 [NBQX]
- effect on EPSP responses, D1R neurons (D1R neurons (NAc)): ablated EPSP responses

Molecule: CNC1(c2ccccc2Cl)CCCCC1=O (centres unmarked) [ketamine]
- RIIβ siP effects compared with ketamine in FST (rats): closely mimicked

Molecule: RQIKIWFQNRRMKWKK-AAGAGSGAVAFKGANGEA [scrambled siP, penetratin-tagged scramble control peptide]
- fEPSP amplitude after HFS (LTP) ([2]; 10 μM for 15 min, washout 25 min, maintained through 50 min following HFS, 25 °C, n = 5): 0.31 ± 0.03 mV

Molecule: C=C1[C@@H](O)[C@@H]2O[C@]3(CC[C@H](/C=C/[C@@H](C)[C@@H]4CC(C)=C[C@@]5(O[C@H](C[C@@](C)(O)C(=O)O)CC[C@H]5O)O4)O3)CC[C@H]2O[C@@H]1[C@@H](O)C[C@H](C)[C@H]1O[C@@]2(CCCCO2)CC[C@H]1C [okadaic acid]
- basal phospho-Thr69 RIIβ, okadaic acid 200 nM (phospho-Thr69 RIIβ; striatal slices, 200 nM, 1 h (selective PP2A inhibition), *p < 0.05, n = 4-5): increased
- basal phospho-Thr69 RIIβ, okadaic acid 1 μM (phospho-Thr69 RIIβ; striatal slices, 1 μM, 1 h (PP1 inhibition), **p < 0.01, n = 4-5): increased
- effect on NMDA-induced reduction of phospho-Thr69 RIIβ (phospho-Thr69 RIIβ; striatal slices, NMDA 25 µM, 5 min, cyclosporin A 10 µM, 1 h or okadaic acid 1 µM, 1 h, n = 4-6): attenuated the effect of NMDA

Molecule: CN[C@H](CC(=O)O)C(=O)O [NMDA, N-methyl-D-aspartate]
- phospho-Thr69 RIIβ, NMDA (phospho-Thr69 RIIβ; striatal slices, NMDA 50 μM, 5 min, *p < 0.05, n = 4): strongly reduced the phosphorylation state of Thr69
- phospho-Thr69 RIIβ, LTP-like conditions (phospho-Thr69 RIIβ; ventral striatal slices, low Mg2+, NMDA 25 μM, 5 min and/or dopamine 10 μM, 15 min, 30 min delay after treatment, n = 5 to 6): decrease in phospho-Thr69 RIIβ
- phospho-Ser114 RIIβ, NMDA (phospho-Ser114 RIIβ): PKA-dependent phosphorylation at Ser114 was increased

Molecule: Thr69 RIIβ: RIIβ phosphorylated at Thr69 by Cdk5
- effect of Thr69 phosphorylation on inhibition of PKA catalytic activity by RIIβ (PKA [3]): did not alter the inhibition of PKA catalytic activity

Molecule: RQIKIWFQNRRMKWKKAGAAAGGGTPSKGVNFAEE [RIIβ siP]
- IC50 [4]: 7.14 ± 2.28 µM

Molecule: Oc1cc2c(c(Cl)c1O)CCNCC2c1ccccc1 (centres unmarked) [SKF81297]
- LTP (HFS-induced), D1 agonist ([2]; SKF81297 2 µM, 15 min bath application, #p < 0.05 control vs SKF, n = 7): enhanced
